Laboratory results from patent publication US6043228A, “O^6 -substituted guanine derivatives, a process for their preparation and their use in treating tumor cells” (Cancer Research Campaign Technology Limited, priority 1993, dated 2000).

What was measured:
recombinant human ATase = biological target: T1, recombinant human ATase (Homo sapiens, UniProt P16455); assay: In vitro ATase inactivation assay (incubation with inactivators and ATase assay); format: biochemical; settings: recombinant human ATase, standard conditions
T1 construct: made in house
T1 sequence (P16455 1-207): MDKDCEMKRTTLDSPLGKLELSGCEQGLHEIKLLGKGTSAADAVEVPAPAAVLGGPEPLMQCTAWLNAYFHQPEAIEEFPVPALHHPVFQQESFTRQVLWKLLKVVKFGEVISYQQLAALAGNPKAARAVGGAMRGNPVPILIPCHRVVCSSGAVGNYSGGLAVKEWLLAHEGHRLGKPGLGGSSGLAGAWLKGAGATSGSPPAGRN
Experimental: The cDNA cloning and overexpression of the human ATase has been reported previously^23. Purification of the recombinant proteins was achieved either by affinity chromatography through a DNA-cellulose column as described by Wilkinson et al.,^25, 26 or by DEAE-cellulose ion-exchange chromatography. For the latter, the ATase protein was partially purified by ammonium sulphate precipitation (30-60%) and dialysed against 10 mM Tris-HCl pH 7.5, 1 mM DTT, 2 mM EDTA, 10% glycerol, before loading on a DEAE-cellulose column. The ATase was then eluted with a 0-0.1 M NaCl gradient.
Compounds to be tested were dissolved in DMSO to a final concentration of 10 mM and diluted just before use in buffer I containing 1 mg/ml bovine serum albumin (IBSA). Recombinant ATase was diluted in IBSA and titrated in order that the reaction be conducted under ATase, and not substrate, limiting conditions. […] Following acid hydrolysis of the DNA as previously described^21 the [^3 H]-methylated protein was recovered and quantitated by liquid scintillation counting. Samples were typically assayed in duplicate and experiments repeated several times. I50 is the concentration of inactivator required to produce a 50% reduction in ATase activity.

[1] = Sensitivity of mammalian cells to the inactivators alone: V79 cells; format: cell-based, Chinese hamster; settings: hamster, v79 cells; FIG. 5; read-out: growth inhibitory dose in V79 cells relative to I50 dose
Experimental: (§1) In order to assess the effects on cell growth alone, Xeroderma pigmentosum cells and Chinese Hamster V79 cells were exposed to increasing concentrations (up to 600 μM) of selected inactivators for 2 h at 37°. In some cases, the inactivators were allowed to undergo hydrolysis at 37° C. for 20 hours and then added to Raji cells in order to assess the extent to which the decomposition products of the agents might inhibit cell growth. After 6 days the extent of cell growth was determined as described above.

[2] = test system: Chinese Hamster V79 cells; assay: as above; format: cell-based
Experimental: as §1

[3] = Sensitivity of mammalian cells to the inactivators alone: XP cells; format: cell-based, human; settings: human, xp cells; FIG. 6; read-out: dose required for growth inhibition relative to that required for ATase inactivation
Experimental: as §1

[4] = test system: Xeroderma pigmentosum cells; assay: as above; format: cell-based, human; settings: inactivator alone (FIG. 6)
Experimental: as §1

ATase = assay: Inactivation of ATase in mammalian cells, summary over human, rat and Chinese hamster cell lines; format: cell-based; settings: Table 5
Experimental: Mammalian cells were cultured under standard conditions. For example, Raji (a human lymphoblastoid cell line from a Burkitt's lymphoma) cells were grown in suspension culture in RPMI medium supplemented with 10% horse serum. […]
Cells were diluted to 10^6 /ml in culture medium containing either the appropriate concentration of inactivator or an equivalent volume of vehicle (DMSO). […] ATase activity was determined as described above, in duplicate sonicated cell extracts and expressed as the, percentage activity remaining based on that present in the untreated controls (for example 350-450 fm/mg in Raji cells).

For `Nc1nc(OCc2ccco2)c2nc[nH]c2n1` [B.4203, 0^6 -furfurylguanine], the “ATase inactivation in vitro, result in words” value (recombinant human ATase) was “not as effective as BeG”, the selectivity ratio [1] was no less than 100 and the “toxic concentration in V79 cells relative to concentration sensitizing to BCNU” value ([2]; FIGS. 5 & 6) was “at least 100 times”. For the same molecule, the “dose producing some growth inhibition of V79 cells” value ([2]; inactivator alone, 2 h (FIG. 5)) was greater than 100 µM, the “growth inhibition / toxicity to V79 cells, in words” value ([2]; inactivator alone, up to 600 μM) was “toxic” and the selectivity ratio [3] was no less than 100. The “growth inhibition / toxicity to XP cells, in words” value [4] was “toxic” and the “effectiveness relative to BeG in the cell lines used” value (ATase) was “up to 7 times”.
